Active and inactive are the calls of the source. No cut-off for these calls is given here.
Key:
[1] = target: T1, Polyunsaturated fatty acid lipoxygenase ALOX12 (Homo sapiens, UniProt P18054)
T1 sequence (P18054 whole entry): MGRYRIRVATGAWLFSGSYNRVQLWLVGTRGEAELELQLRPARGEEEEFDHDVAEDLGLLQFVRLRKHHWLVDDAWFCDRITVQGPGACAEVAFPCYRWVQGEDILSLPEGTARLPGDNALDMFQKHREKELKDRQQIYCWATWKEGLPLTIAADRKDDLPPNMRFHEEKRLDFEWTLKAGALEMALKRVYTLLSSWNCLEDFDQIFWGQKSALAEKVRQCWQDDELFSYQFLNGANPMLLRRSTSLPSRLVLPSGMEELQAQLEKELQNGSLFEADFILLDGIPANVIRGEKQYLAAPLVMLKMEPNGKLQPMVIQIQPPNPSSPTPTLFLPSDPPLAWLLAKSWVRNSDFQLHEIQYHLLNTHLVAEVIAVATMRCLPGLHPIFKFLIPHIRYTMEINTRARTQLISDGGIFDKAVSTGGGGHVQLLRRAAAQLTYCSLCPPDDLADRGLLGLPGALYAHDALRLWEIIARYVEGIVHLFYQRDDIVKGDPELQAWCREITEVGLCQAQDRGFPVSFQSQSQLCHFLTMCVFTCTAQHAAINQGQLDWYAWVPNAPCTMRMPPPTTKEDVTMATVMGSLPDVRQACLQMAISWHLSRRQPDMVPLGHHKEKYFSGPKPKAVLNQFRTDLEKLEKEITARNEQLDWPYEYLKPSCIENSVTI

[2] = Stability of the compound in PBS buffer at pH 7.4 measured at 48 hrs; type: physicochemical; settings: read-out: Stability
[3] = target: Cyclooxygenase (Homo sapiens) (UniProt P35354+P23219); test: Inhibition of COX1/COX2 (unknown origin) using arachidonic acid as substrate assessed as consumption of oxygen preincubated for 5 mins followed by substrate addition at 15 uM; type: protein assay
[4] = target: T2, Polyunsaturated fatty acid lipoxygenase ALOX12 (Mus musculus) (UniProt P39655); test: Inhibition of 12-LOX in mouse BTC3 cells assessed as inhibition of arachidonic acid/calcium ionophore-induced 12-HETE production after 4 hrs by ELISA; type: cell-based
T2 sequence (whole entry): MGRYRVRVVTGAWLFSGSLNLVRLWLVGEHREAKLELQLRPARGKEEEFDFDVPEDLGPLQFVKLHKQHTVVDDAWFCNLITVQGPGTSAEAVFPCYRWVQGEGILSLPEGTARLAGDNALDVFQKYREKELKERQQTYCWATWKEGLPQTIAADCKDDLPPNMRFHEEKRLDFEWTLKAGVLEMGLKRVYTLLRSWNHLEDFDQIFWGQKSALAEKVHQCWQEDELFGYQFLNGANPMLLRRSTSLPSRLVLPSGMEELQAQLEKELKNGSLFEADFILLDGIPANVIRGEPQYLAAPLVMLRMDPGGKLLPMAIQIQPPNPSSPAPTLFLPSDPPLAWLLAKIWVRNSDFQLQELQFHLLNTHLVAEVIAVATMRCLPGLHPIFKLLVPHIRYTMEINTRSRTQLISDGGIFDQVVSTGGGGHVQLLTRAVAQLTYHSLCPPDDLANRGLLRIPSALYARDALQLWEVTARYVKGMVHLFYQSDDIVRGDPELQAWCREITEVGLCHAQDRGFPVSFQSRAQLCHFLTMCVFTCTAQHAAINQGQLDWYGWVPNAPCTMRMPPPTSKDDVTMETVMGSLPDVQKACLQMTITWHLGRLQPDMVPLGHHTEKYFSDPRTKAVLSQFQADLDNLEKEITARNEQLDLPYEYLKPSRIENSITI

[5] = Metabolic stability in mouse liver microsomes measured over 1 hr in absence of NADPH; type: ADME, Microsome
[6] = Metabolic stability in mouse plasma assessed as compound remaining measured at 2 hrs; type: ADME, cell-free; settings: read-out: Stability
[7] = Aqueous solubility of the compound in PBS buffer at pH 7.4 by chemiluminescent nitrogen detection method; type: physicochemical
[8] = system: Liver microsome; test: Metabolic stability in rat liver microsomes measured over 1 hr in absence of NADPH; type: ADME
[9] = system: Mus musculus; test: Cmax in CD-1 mouse at 3 mg/kg, iv; type: ADME, organism-based; design: dose 3 mg/kg, route intravenous; settings: in vivo
[10] = Stability of the compound in HEPES buffer at pH 7.3; type: physicochemical
[11] = Stability of the compound in presence of glutathione; type: ADME
[12] = Aqueous solubility of the compound in PBS buffer at pH 7.4 by LC-UV spectroscopic analysis; type: physicochemical
[13] = Stability of the compound in aqueous buffer at pH 2 to 9; type: physicochemical
[14] = system: Mus musculus; test: Volume of distribution in CD-1 mouse at 3 mg/kg, iv; type: ADME, organism-based; design: dose 3 mg/kg, route intravenous; settings: in vivo
[15] = system: Mus musculus; test: Cmax in CD-1 mouse at 30 mg/kg, po; type: ADME, organism-based; design: dose 30 mg/kg, route oral; settings: in vivo
[16] = system: Mus musculus; test: AUC (infinity) in CD-1 mouse at 3 mg/kg, iv; type: ADME, organism-based, Plasma; design: dose 3 mg/kg, route intravenous, time infinity; settings: in vivo
[17] = system: Mus musculus; test: AUC (infinity) in CD-1 mouse at 30 mg/kg, po; type: ADME, organism-based, Plasma; design: time infinity, dose 30 mg/kg, route oral; settings: in vivo
[18] = organism: Rattus norvegicus; test: Metabolic stability in rat assessed as glucuronidation; type: ADME, organism-based; settings: in vitro
[19] = target: T3, Polyunsaturated fatty acid lipoxygenase ALOX15 (Homo sapiens, UniProt P16050)
T3 sequence (P16050 whole entry): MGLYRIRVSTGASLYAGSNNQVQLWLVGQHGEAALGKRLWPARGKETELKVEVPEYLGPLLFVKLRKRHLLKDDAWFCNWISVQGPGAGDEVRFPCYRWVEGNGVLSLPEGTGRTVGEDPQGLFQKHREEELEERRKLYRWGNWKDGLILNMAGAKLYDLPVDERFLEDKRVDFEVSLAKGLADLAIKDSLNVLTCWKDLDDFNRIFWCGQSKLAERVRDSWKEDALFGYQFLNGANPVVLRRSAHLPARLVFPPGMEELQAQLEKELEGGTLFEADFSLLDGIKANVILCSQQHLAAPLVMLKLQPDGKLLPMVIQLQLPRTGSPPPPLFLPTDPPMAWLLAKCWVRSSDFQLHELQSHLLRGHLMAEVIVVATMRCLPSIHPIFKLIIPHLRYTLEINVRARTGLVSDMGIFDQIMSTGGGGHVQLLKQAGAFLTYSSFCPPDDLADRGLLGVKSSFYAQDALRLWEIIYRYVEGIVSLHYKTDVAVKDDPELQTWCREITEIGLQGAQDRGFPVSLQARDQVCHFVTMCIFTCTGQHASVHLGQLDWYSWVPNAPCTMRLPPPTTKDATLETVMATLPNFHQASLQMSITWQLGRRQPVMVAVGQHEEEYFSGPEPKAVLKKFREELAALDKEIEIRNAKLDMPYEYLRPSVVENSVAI

`Nc1ccccc1CNc1ccc(S(=O)(=O)Nc2nccs2)cc1` gave an IC50 [1] of over 40 µM.

`O=S(=O)(Nc1nccs1)c1ccc(NCc2ccccc2)cc1` showed an IC50 [1] of over 40 µM.

In the case of `COc1cccc(CNc2ccc(S(=O)(=O)Nc3nc4ccccc4o3)cc2)c1O`, the remaining at 48 h [2] is reported as 100%, the inhibition [3] is reported as “inactive” and the inhibition [4] is reported as “Active”. The Stability [5] was “Stable”, the remaining at 2 h [6] was 100% and the solubility [7] was “soluble”. The Stability [8] was “Stable”.

With `COc1cccc(CNc2ccc(S(=O)(=O)Nc3nc4ccccc4s3)cc2)c1O` [VLX-1005] the Cmax [9] was 112 µM, the Stability [10] was “Stable” and the Stability [11] was “Stable”. The solubility [12] was under 5 µg/mL, the inhibition [3] was “inactive” and the Stability [13] was “Stable”. For the same molecule, the Vd [14] was 0.55 L/kg, the Cmax [15] was 38 µM and the Stability [5] was “Stable”. The AUC [16] was 34 µM·h, the solubility [7] was “soluble” and the Stability [8] was “Stable”. It also gave an AUC [17] of 67 µM·h.

`O=S(=O)(Nc1nccs1)c1ccc(NCc2cccc(O)c2)cc1` gave an IC50 [1] of over 40 µM.

For `COc1cccc(CNc2ccc(S(=O)(=O)Nc3nc4ccccc4[nH]3)cc2)c1O`, the inhibition [3] was “inactive”.

For `O=S(=O)(Nc1nc2ccccc2s1)c1ccc(NCc2cccc(Cl)c2O)cc1`, the Stability [18] was “Unstable” and the IC50 [19] was 1.3 µM.

`O=S(=O)(Nc1nccs1)c1ccc(NCc2ccccc2O)cc1` gave an IC50 [1] of over 40 µM.

Source: ChEMBL document CHEMBL3112506, “Synthesis and structure-activity relationship studies of 4-((2-hydroxy-3-methoxybenzyl)amino)benzenesulfonamide derivatives as potent and selective inhibitors of 12-lipoxygenase” (J Med Chem, 2014)
